# Measurements: US9161939B2, “Pyrrolo[2,3-d]pyrimidine compounds” (Zoetis LLC, priority 2008, dated 2015)
# Key:
# [1] = biological target: Recombinant JAK-1 (GST-JAK-1 (852-1142)) (Homo sapiens (Human), UniProt P23458); experiment: JAK Enzymatic Assay (peptide mobility shift), JAK-1; format: biochemical; conditions: ATP 40 micromolar, IRS-1 peptide, 240 minutes
# Method: (§4) Materials: Recombinant JAK-2 (Catalog Number PV4210) and JAK-3 (Catalog Number PV3855) were purchased from (Invitrogen Corporation, Madison, Wis.). Recombinant JAK-1 (GST-JAK-1 (852-1142)) and Tyk-2 (GST-Tyk2 (870-1187, C1187S)) used in this study were expressed and purified at Pfizer Laboratories. Adenosine 5′-triphosphate (ATP) was obtained from Sigma Chemical Company, St. Louis, Mo. […] Coating Reagent 3 was purchased from (Caliper Life Sciences, Hopkinton, Mass.).
# (§5) Reactions were carried out in a 384-well plate (Matrical MP-101) in a 10 microliter total volume. Reaction mixtures contained 20 mM HEPES, pH 7.4, 10 mM magnesium chloride, 0.01% bovine serum albumin (BSA), 0.0005% Tween-20, ATP (4 micromolar for JAK-2 and JAK-3, 40 micromolar for JAK-1 and 7 micromolar for Tyk-2)), 2% DMSO and 1 micromolar peptide substrate (JAKtide for JAK-2 and JAK-3 or IRS-1 peptide for JAK-1 and Tyk-2). Compounds were diluted serially in 100% dimethyl sulfoxide and tested in an 11 point dose response in duplicate or quadruplicate (200 nl of compound/DMSO was added per 10 microliter reaction). […] Data was analyzed using Hits Well Analyzer Software from (Caliper Life Sciences) to obtain the amount of product formed.
# (§6) Data was then imported into an internal application where each data point was expressed as % inhibition based on uninhibited and no enzyme controls. […]
# [2] = biological target: Recombinant JAK-3 (Homo sapiens (Human), UniProt P52333); experiment: JAK Enzymatic Assay (peptide mobility shift), JAK-3; format: biochemical; conditions: ATP 4 micromolar, JAKtide, 90 minutes
# Method: as §4, §5, §6
# [3] = system: T-cell proliferation in canine whole blood (ConA + canine IL-2); experiment: Canine In Vitro T-Cell Proliferation Assay; format: cell-based; conditions: Canis lupus familiaris, tritiated thymidine
# Method: Methods: Canine whole blood was collected in sodium heparin tubes from 29 beagle dogs and 23 mixed breed dogs. Whole blood (20 μL) was plated in 96-well plates (Costar 3598) with 180 μL of medium (RPMI 1640, Gibco #21870-076, with 1% heat inactivated fetal bovine serum, Gibco #10082-39, 292 μg/ml L-glutamine, Gibco #250030-081, 100 u/ml penicillin and 100 μg streptomycin per ml, Gibco #15140-122) containing vehicle control or test compound (0.001 to 10 μM), concanavalin A (ConA; 1 μg/ml, Sigma C5275), and canine interleukin-2 (IL-2; 50 ng/ml, R&D Systems 1815-CL/CF). Wells containing whole blood, medium with vehicle control and no ConA or IL-2 were used as background controls. Plates were incubated at 37° C. for 48 hours. Tritiated thymidine, 0.4 μCi/well (Perkin Elmer, Net027A-005MC), was added for 20 additional hours. Plates were frozen and then thawed, washed and filtered using a Brandel MLR-96 cell harvester and prewet filter mats (Wallac 1205-401, Perkin Elmer). Filters were dried at 60° C. for one hour (Precision 16EG convection oven) and placed into filter sample bags (Wallac 1205-411, Perkin Elmer) with 10 mL of scintillant (Wallac 1205-440, Perkin Elmer). Sealed filters were counted on a LKB Wallac 1205 Betaplate liquid scintillation counter. Data were collected via Gterm Betaplate program v1.1 (Wallac copyright 1989-1990) and transformed into percent inhibition, calculated using the following formula: […]
# [4] = system: MYA-1 feline T-lymphoblast cell line; experiment: Cell Proliferation Inhibitory Assay, MYA-1; format: cell-based; conditions: Felis catus; Feline MYA-1 lymphoid line (IL-2 dependent); MTS
# Method: (§1) Feline Cell Lines The MYA-1 and FETJ are feline T-lymphoblast cell lines obtained from ATCC (Manassas, Va.). These cells were cultured in RPMI 1640 complete media supplemented with 10% FBS at 37° C. in a humidified incubator with 5% CO2.
# (§2) Cells cultured in medium described above were plated in 96-well Costar plates (Corning) at a density of 1×10^3 cells/well (feline cell lines) or 2×10^5 cells/well (lymph node cells) and exposed to various concentrations of test compounds for up to 5 days at 37° C. in a humidified incubator with 5% CO2. Effects on proliferation were determined using the CellTiter 96® AQueous Non-Radioactive Cell Proliferation Assay (Promega) according to manufacturer's instructions. In general, proliferation was indirectly measured using a soluble tetrazolium salt (MTS) and an electron coupling agent. MTS bioreduction into a formazan product soluble in tissue culture medium was monitored by absorbance at 490 nm on a Spectramax plate reader using Softmax Pro 4.6 software (Molecular Devices).
# [5] = system: FETJ feline T-lymphoblast cell line; experiment: Cell Proliferation Inhibitory Assay, FETJ; format: cell-based; conditions: Felis catus; Feline FETj lymphoid line (IL-2 independent); MTS
# Method: as §1, §2
# [6] = system: MSU LN 8 De novo T-cell lymphoma lymph node cells; experiment: Cell Proliferation Inhibitory Assay, ex vivo canine lymphoma nodal tissue MSU LN 8; format: cell-based; conditions: Canis lupus familiaris, Canine MSU LN 8, De novo T-cell lymphoma
# Method: (§3) Malignant lymph nodes were excised by veterinary staff at Michigan State University (MSU) Veterinary College, placed into transport media (Advanced RPMI 1640 complete medium supplemented with 10% Fetal Bovine Serum (FBS), 100 U/mL penicillin, 100 ug/mL streptomycin and 0.25 ug/mL Amphotercin B (Invitrogen/Gibco®). Nodes were processed within 24 hours of removal by mincing into tiny pieces and passing through a tissue sieve. Cell suspensions were spun at 200×g, supernatant was removed, and the cell pellet was resuspended in NH4Cl for 10 minutes at room temperature. The cell suspension was pelleted by centrifugation; the NH4Cl was removed and washed once with Hanks Balanced Salt Solution (HBSS), followed by re-suspension in Proliferation Medium (Advanced RPMI complete, 1% FBS, […] 2-Mercaptoethanol, 100 U/mL penicillin, 100 ug/mL streptomycin and 0.25 ug/mL Amphotercin B). The cell suspension was then passed through a 100 μm nylon cell strainer (BD-Falcon) and counted using a hemacytometer. Cells were cultured in either Proliferation Medium alone, Proliferation Medium supplemented with 0.005% Pansorbin® (Heat inactivated, formalin-fixed Staphylococcus Aureus cells (SAC), Calbiochem), and 10 ng/mL canine IL-2 (R&D Systems), or Proliferation Medium supplemented with 125 ng/mL concavalin A (Sigma) and 125 ng/mL lipopolysaccarride (LPS; Calbiochem). […]
# [7] = system: MSU LN 9 De novo B-cell lymphoma lymph node cells; experiment: Cell Proliferation Inhibitory Assay, ex vivo canine lymphoma nodal tissue MSU LN 9; format: cell-based; conditions: Canis lupus familiaris, Canine MSU LN 9, De novo B-cell lymphoma
# Method: as §3
# [8] = system: MSU LN 10 Chemotherapy resistant B-cell lymphoma lymph node cells; experiment: Cell Proliferation Inhibitory Assay, ex vivo canine lymphoma nodal tissue MSU LN 10; format: cell-based; conditions: Canis lupus familiaris; Canine MSU LN 10, Chemotherapy resistant B-cell lymphoma; LPS + ConA
# Method: as §3
# [9] = system: MSU LN 11 De novo B-cell lymphoma lymph node cells; experiment: Cell Proliferation Inhibitory Assay, ex vivo canine lymphoma nodal tissue MSU LN 11; format: cell-based; conditions: Canis lupus familiaris; Canine MSU LN 11, De novo B-cell lymphoma; LPS + ConA
# Method: as §3
# [10] = biological target: Recombinant JAK-2 (Homo sapiens (Human), UniProt O60674); conditions: read-out: JAK-2 IC50; ATP 4 micromolar, JAKtide, 150 minutes
# Method: as §4, §5, §6
# [11] = system: flea-associated pruritus and dermatitis in flea allergic dogs; experiment: Reducing Flea-Associated Pruritus and Dermatitis Assay; format: in vivo; conditions: for pruritus as compared to placebo (seconds of pruritus per 4 hour recording): 10% level of significance
# Method: Twenty eight male and female dogs of mixed breeds ranging in weight from 5-35 kg and greater than one year of age were infested with approximately 100 unfed adult cat fleas (Ctenocephalides felis) 14 days prior to the start of dosing and reinfested with 30 fleas per dog every 4 days throughout the study. Seven days before dosing, twenty four dogs were randomized into three different treatment groups, placebo, 0.5 mg/kg or 0.25 mg/kg of the compound of Example 1b, based on visual analog scale (VAS) scores for skin lesions. Treatments were given orally twice a day for 28 days, and pruritic behavior as well as erythema and skin lesions were was assessed during the study. Pruritic behavior was recorded by placing dogs into pens with video recording capability, and recording their activity over 4 hours. Pruritic activity was quantitated by determining how many seconds the dogs spent scratching. Skin lesions were recorded by image capture of abdominal, inguinal region and the severity ranked according to a visual analog scale (VAS).
# Video captured elapsed time of pruritic behavior was analyzed using a mixed linear model for repeated measures. The model included fixed effects of treatment and day of study and the interaction of treatment and day of study. Random effects included block, the interaction of block and treatment and error. Baseline data for pruritic behavior (day −1) were used as covariate in the analysis of pruritic behavior. Least squares means were used as estimates of treatment means. Standard errors of least squares means were estimated and 90% confidence intervals were constructed. Geometric means were computed from the least squares means for log-transformed data. A priori contrasts were used to assess treatment. Treatment differences were assessed at the 10% level of significance (P≦0.10).
# Sequence of Recombinant JAK-3 (P52333 781-1124): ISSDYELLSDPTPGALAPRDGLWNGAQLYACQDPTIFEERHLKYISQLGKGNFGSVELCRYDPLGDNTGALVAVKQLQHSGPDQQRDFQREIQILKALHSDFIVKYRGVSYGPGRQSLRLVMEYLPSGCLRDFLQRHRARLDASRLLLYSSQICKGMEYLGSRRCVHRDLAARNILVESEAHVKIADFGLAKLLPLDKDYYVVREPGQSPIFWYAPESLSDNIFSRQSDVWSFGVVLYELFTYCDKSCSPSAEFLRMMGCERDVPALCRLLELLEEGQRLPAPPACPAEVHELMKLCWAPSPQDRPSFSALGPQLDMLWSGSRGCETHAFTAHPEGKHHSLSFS
# Sequence of Recombinant JAK-2 (O60674 808-1132): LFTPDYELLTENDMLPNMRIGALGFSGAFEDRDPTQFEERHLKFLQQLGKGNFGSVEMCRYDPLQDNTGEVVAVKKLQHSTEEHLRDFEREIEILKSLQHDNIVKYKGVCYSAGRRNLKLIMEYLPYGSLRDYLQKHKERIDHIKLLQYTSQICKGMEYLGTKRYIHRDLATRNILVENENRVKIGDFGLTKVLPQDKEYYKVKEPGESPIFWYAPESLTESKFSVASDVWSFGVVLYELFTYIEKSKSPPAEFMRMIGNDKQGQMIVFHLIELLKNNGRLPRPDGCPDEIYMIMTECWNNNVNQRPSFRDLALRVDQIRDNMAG
# Sequence of Recombinant JAK-1 (GST-JAK-1 (852-1142)) (P23458 852-1142): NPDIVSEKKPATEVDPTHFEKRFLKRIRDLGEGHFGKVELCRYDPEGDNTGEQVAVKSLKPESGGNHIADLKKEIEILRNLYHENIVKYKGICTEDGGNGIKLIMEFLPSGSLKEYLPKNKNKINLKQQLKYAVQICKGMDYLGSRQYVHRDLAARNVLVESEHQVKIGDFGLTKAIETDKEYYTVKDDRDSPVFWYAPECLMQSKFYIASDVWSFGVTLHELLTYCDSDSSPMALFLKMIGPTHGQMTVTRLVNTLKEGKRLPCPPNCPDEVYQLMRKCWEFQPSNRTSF
compound,measurement,setting,value
"CNS(=O)(=O)C[C@H]1CC[C@H](N(C)c2ncnc3[nH]ccc23)CC1 [Example 1a, N-methyl-1-{trans-4-[methyl(7H-pyrrolo[2,3-d]pyrimidin-4-yl)amino]cyclohexyl}methanesulfonamide]",IC50,[1],9.53 nM
same,IC50,[2],95.1 nM
same,IC50,[3]; whole blood from beagles,66.3 nM
same,IC50,[3]; whole blood from mixed breed dogs,138 nM
same,IC50,[4],122 nM
same,IC50,[5],> 1000 nM
same,IC50,[6]; LPS + ConA,357 nM
same,IC50,[6]; SAC + IL-2,38 nM
same,IC50,[7]; LPS + ConA,147 nM
same,IC50,[7]; SAC + IL-2,100 nM
same,IC50,[8],687 nM
same,IC50,[9],64 nM
same,IC50,[10],17.5 nM
"CNS(=O)(=O)C[C@H]1CC[C@H](N(C)c2ncnc3[nH]ccc23)CC1.O=C(O)/C=C\C(=O)O [Example 1b, N-methyl-1-{trans-4-[methyl(7H-pyrrolo[2,3-d]pyrimidin-4-yl)amino]cyclohexyl}methanesulfonamide maleic acid salt]",pruritus as compared to placebo (seconds of pruritus per 4 hour recording),"[11]; 0.25 mg/kg orally twice a day, days 1, 4 and 12",Significant reductions
same,Lesions and erythema (VAS scores),"[11]; 0.5 mg/kg orally twice a day for 28 days, flea allergic dogs, Day 27 VAS",significantly reduced
same,pruritus as compared to placebo (seconds of pruritus per 4 hour recording),"[11]; 0.5 mg/kg orally twice a day, days 1 and 20",Significant reductions
"CN(c1ncnc2[nH]ccc12)[C@H]1CC[C@H](CS(=O)(=O)NC2CCC2)CC1 [Example 2, N-cyclobutyl-1-{trans-4-[methyl(7H-pyrrolo[2,3-d]pyrimidin-4-yl)amino]cyclohexyl}methanesulfonamide]",IC50,[1],45 nM
same,IC50,[2],742 nM
same,IC50,[3]; whole blood from beagles,410 nM
same,IC50,[10],101 nM
"CCNS(=O)(=O)C[C@H]1CC[C@H](N(C)c2ncnc3[nH]ccc23)CC1 [Example 3, N-ethyl-1-{trans-4-[methyl(7H-pyrrolo[2,3-d]pyrimidin-4-yl)amino]cyclohexyl}methanesulfonamide]",IC50,[3]; whole blood from beagles,83 nM
